Laboratory results published in patent publication US20090298811A1, “BENZIMIDAZOLONE DERIVATIVES” (Pfizer Inc, priority 2006, published 2009).

What was measured:
human CB1 receptor [1] = target: T1, human CB1 receptor (Homo sapiens, UniProt P21554); test: Human CB1 receptor binding, [3H] CP-55,940 displacement on HEK cell membranes; set-up: expressed in transfected cells; membranes; details: [3H] CP-55,940 500 pM
Protocol: The Human CB1 receptor binding affinity and other biological activities of the compounds of this invention are determined by the following procedures.
Membrane preparation: Human Embryonic Kidney (HEK) Cells expressing the human CB1 receptor under transcriptional regulation of a tetracycline inducible promoter were grown in Dulbecco's Modified Essential Medium with sodium pyruvate (Invitrogen, Carlsbad, Calif.) containing 10% tetracycline free fetal bovine serum (Clonetech, Mountain View, Calif.) 100 μg/ml hygromycin (Calbiochem, San Diego, Calif.), 5 μg/ml blasticidin (Invitrogen). CB1 receptor expression was induced by addition of 1 μg/ml doxycycline (Calbiochem) and incubation for an additional 24 hours. Cells were released from flasks using Cell Dissociation Buffer (Invitrogen). Cells were pelleted by centrifugation at 500×G for 5 minutes. Membranes were prepared by resuspending cells in ice cold TEE Buffer (25 mM Tris pH 7.4, 5 mM EDTA, 5 mM EGTA, Complete Protease Inhibitor (Roche, Basel, Switzerland)). Cells were lysed with 12 strokes of a dounce homogenizer. Unlysed cells were pelleted by centrifugation at 500×G for 5 minutes. Membranes were pelleted by centrifugation at 25,000×G for 30 minutes. Membranes were resuspended in TEE, dounced 12 strokes, and pelleted a second time at 25,000×G for 30 minutes. Membrane pellet was resuspended in 50 mM Tris pH 7.4, 100 mM NaCl, 3 mM MgCl2, 0.2 mM EGTA, Complete Protease Inhibitor (Roche). Protein concentration was determined using the Micro-BCA Protein Assay Kit (Pierce, Rockford, Ill.) using BSA as a standard. Membranes were quick frozen and stored at −80 degrees Celsius until use. Binding experiments: 50 μl of test compound was incubated with 50 μl, of [^3H] CP-55,940 (Perkin Elmer, Boston, Mass.) (final concentration 500 pM) and 150 μl of membrane homogenate (1 μg/well) in polypropylene 96-well plates (Corning, Acton, Mass.). Final reaction conditions were 50 mM Tris pH 7.4, 100 mM NaCl, 3 mM MgCl2, 0.2 mM EGTA, 0.04% BSA. Nonspecific binding was determined by incubation with 50 μM WIN-55,212-2 (Tocris, Ellisville, Mo.). After incubation at room temperature for 60 minutes reactions were harvested by vacuum filtration through Unifilter GF/B-96 filters (Perkin Elmer) that had been presoaked in assay buffer containing 0.5% BSA (Sigma, St. Louis, Mo.) using a FilterMate Plate Harvester (Perkin Elmer). Filters were rinsed 4 times with 50 mM Tris pH 7.4, 0.025% Tween20 and dried at 50 degrees Celsius for at least 30 minutes. 40 μl of Microscint-20 (Perkin Elmer) was added per well, and plates were counted using a Top-Count Microplate Scintillation Counter (Perkin Elmer). Binding data were analyzed and EC50 and Ki values calculated using Graph Pad Prism 4.0 Software.

human CB1 receptor [2] = target: T1, human CB1 receptor; test: GTPγS binding on membranes of CHO cells expressing the human CB1 receptor; format: biochemical; set-up: expressed in transfected cells; host or cells: CHO cells (G418 selection); membranes; details: CHO cell membranes, [35S] GTPγS
Protocol: Membrane preparation: CHO cells expressing the human CB1 receptor were grown to 80% confluence in Ham's F-12 Nutrient Medium (Invitrogen) containing 10% fetal bovine serum (Invitrogen), 1% pen/strep (Invitrogen), 1% Nonessential amino acids (Invitrogen) and 500 μg/ml G418 (Invitrogen). Cells were released from flasks using Cell Dissociation Buffer (Invitrogen). Cells were pelleted by centrifugation at 500×G for 5 minutes. Membranes were prepared by resuspending cells in ice cold Assay Buffer (25 mM Tris pH 7.4, 5 mM EDTA, 5 mM EGTA, Complete Protease Inhibitor (Roche)). Cells were lysed with 12 strokes of a dounce homogenizer. Unlysed cells were pelleted by centrifugation at 500×G for 5 minutes. Membranes were pelleted by centrifugation at 25,000×G for 30 minutes. Membranes were resuspended in TEE, dounced 12 strokes, and pelleted a second time at 25,000×G for 30 minutes. Membrane pellet was resuspended in 50 mM Tris pH 7.4, 100 mM NaCl, 3 mM MgCl2, 0.2 mM EGTA, Complete Protease Inhibitor (Roche). Protein concentration was determined using the Micro-BCA Protein Assay Kit (Pierce) using BSA as a standard. Membranes were frozen and stored at −80 degrees Celsius until use. GTPγS Binding: 40 μl of test compound was incubated with 20 μl of [^35S] GTPγS (Perkin Elmer) (1250 Ci/millimole) and 140 μl of membrane homogenate (5 ug/well) in polypropylene 96-well plates (Corning). Final reaction conditions were 50 mM Tris pH 7.4, 100 mM NaCl, 3 mM […], 0.2 mM EGTA, 0.04% BSA. After incubation at 37 degrees Celsius for 45 minutes reactions were harvested by vacuum filtration through Unifilter GF/B-96 filters (Perkin Elmer) using a FilterMate Plate Harvester (Perkin Elmer). Filters were rinsed 4 times with ice cold 50 mM Tris pH 7.4, 3 mM MgCl2, 0.2 mM EGTA and dried at 50 degrees Celsius for at least 30 minutes. 40 μl of Microscint-20 (Perkin Elmer) was added per well, and plates were counted using a Top-Count Microplate Scintillation Counter (Perkin Elmer). Binding data were analyzed and EC50 values were calculated using Graph Pad Prism 4.0 Software.

T1 sequence (P21554 whole entry): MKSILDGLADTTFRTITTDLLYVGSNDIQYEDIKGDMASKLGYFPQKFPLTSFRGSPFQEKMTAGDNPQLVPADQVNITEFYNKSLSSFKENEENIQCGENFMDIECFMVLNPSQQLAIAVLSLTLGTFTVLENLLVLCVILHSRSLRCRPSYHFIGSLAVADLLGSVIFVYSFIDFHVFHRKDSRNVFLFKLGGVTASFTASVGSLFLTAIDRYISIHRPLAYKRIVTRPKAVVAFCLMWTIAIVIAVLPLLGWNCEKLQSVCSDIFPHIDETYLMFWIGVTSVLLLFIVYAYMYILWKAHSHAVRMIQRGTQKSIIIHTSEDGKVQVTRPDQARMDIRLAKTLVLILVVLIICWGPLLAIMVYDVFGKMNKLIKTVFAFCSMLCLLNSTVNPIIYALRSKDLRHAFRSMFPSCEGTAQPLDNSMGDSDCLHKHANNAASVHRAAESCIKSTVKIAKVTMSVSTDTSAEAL

| Compound | Ki (human CB1 receptor [1]) [nM] | EC50 (human CB1 receptor [2]) [nM] |
| --- | --- | --- |
| O=C(N[C@H]1c2ccccc2C[C@H]1O)n1c(=O)n(CC2CCOCC2)c2ccccc21 [Example 280] | 31 | 136 |
| O=C(N[C@H]1c2ccccc2C[C@H]1O)n1c(=O)n(CC2CCCCC2)c2ccccc21 [Example 188] | 1.9 | 87.7 |
| CC(C)(C)[C@H](NC(=O)n1c(=O)n(CC2CCOCC2)c2ccccc21)C(=O)NCC(N)=O [Example 302] | 82.3 | 407 |
| CC(C)(C)[C@H](NC(=O)n1c(=O)n(CC2CCCCC2)c2cccc(F)c21)C(N)=O [Example 271] | 1.28 | 6.53 |
| O=C(N[C@H]1c2ccccc2C[C@H]1O)n1c(=O)n(CC2CCC2)c2ccccc21 [Example 189] | 88.4 | 1020 |
| Cc1ccc2c(c1)n(CC1CCCCC1)c(=O)n2C(=O)N[C@@H](Cc1ccccc1)C(N)=O [Example 268] | 130 | 2580 |
| CC(C)(C)[C@H](NC(=O)n1c(=O)n(Cc2cccc(F)c2)c2ccccc21)C(N)=O [Example 362] | 3.7 | 106 |
| Cc1nc(C)c(CNC(=O)n2c(=O)n(CC3CCOCC3)c3ccccc32)s1 [Example 337] | 12.1 | 6490 |
| CC(C)(C)[C@H](NC(=O)n1c(=O)n(CC2CCOCC2)c2ccccc21)C(=O)NCCO [Example 317] | 12 | 83.6 |
| CC(C)(C)[C@@H](CO)NC(=O)n1c(=O)n(CC2CCCCC2)c2ccccc21 [Example 176] | 2.22 | 82.4 |
| CC(C)(C)[C@@H](CO)NC(=O)n1c(=O)n(CC2CCCCC2)c2cc(Br)ccc21 [Example 308] | 5.38 | 20.5 |
| CN(C)CC(C)(C)CNC(=O)n1c(=O)n(CC2CCCCC2)c2ccccc21 [Example 182] | 17 | 267 |
| CC(C)(C)[C@H](NC(=O)n1c(=O)n(Cc2ccccc2F)c2ccccc21)C(N)=O [Example 357] | 2.4 | 123 |
| CC(C)(C)[C@H](NC(=O)n1c(=O)n(CC2CCOCC2)c2ccccc21)c1nnc(N)o1 [Example 319] | 5.17 | 96.3 |
| CCCCCn1c(=O)n(C(=O)N[C@H](C(N)=O)C(C)C)c2ccccc21 [Example 205] | 69 | 422 |
| CC(C)(C)[C@H](NC(=O)n1c(=O)n(Cc2ccc(F)cc2)c2ccccc21)C(N)=O [Example 363] | 0.36 | 4.74 |
| CCCCCn1c(=O)n(C(=O)N[C@H]2CCCc3ccccc32)c2ccccc21 [Example 199] | 0.9 | 40.1 |
| CNC(=O)[C@@H](NC(=O)n1c(=O)n(CC2CCOCC2)c2ccccc21)C(C)(C)C [Example 303] | 5.71 | 36.6 |
| CC(C)(C)[C@H](NC(=O)n1c(=O)n(CC2CCOCC2)c2ccccc21)C(N)=O [Example 132, N-[(1S)-1-(aminocarbonyl)-2,2-dimethylpropyl]-2-oxo-3-(tetrahydro-2H-pyran-4-ylmethyl)-2,3-dihydro-1H-benzimidazole-1-carboxamide] | 3.4 | 12.7 |
| CC(C)(C)[C@H](NC(=O)n1c(=O)n(CC2CCOCC2)c2ccccc21)C(=O)NC[C@H](O)CO [Example 345] | 52.8 | 1150 |
| CCc1nc(CNC(=O)n2c(=O)n(CC3CCOCC3)c3ccccc32)cs1 [Example 328] | 5.94 | 167 |

| Compound | Ki (human CB1 receptor [1]) [nM] | EC50 (human CB1 receptor [2]) [nM] |
| --- | --- | --- |
| CC(C)(C)[C@H](NC(=O)n1c(=O)n(CC2CCOCC2)c2cc(C#N)ccc21)C(N)=O [Example 272] | 58 | 45.4 |
| CC(C)(C)[C@@H](CO)NC(=O)n1c(=O)n(CC2CCOCC2)c2cc(F)ccc21 [Example 301] | 5.25 | 268 |
| CC(C)(C)[C@H](NC(=O)n1c(=O)n(CC2CCOCC2)c2cc(F)ccc21)C(=O)NC1CC1 [Example 310] | 30.2 | 173 |
| CC(C)(C)[C@H](NC(=O)n1c(=O)n(CC2CCCCO2)c2ccccc21)C(N)=O (stereo partly shown) [Example 224] | 29.9 | 176 |
| O=C(N[C@H]1CCCc2ccccc21)n1c(=O)n(CC2CCOCC2)c2ccccc21 [Example 276] | 0.374 | 5.8 |
| CC(C)(C)[C@H](NC(=O)n1c(=O)n(CCC(F)(F)F)c2ccccc21)C(N)=O [Example 227] | 10.2 | 245 |
| CCCCCn1c(=O)n(C(=O)N[C@H]2c3ccccc3C[C@H]2O)c2ccccc21 [Example 190] | 8.09 | 406 |
| CC(C)(C)[C@H](NC(=O)n1c(=O)n(CC2CCCCC2)c2ccc(F)cc21)C(N)=O [Example 165] | 0.82 | 27.4 |
| CC(C)(C)[C@H](NC(=O)n1c(=O)n(CC2CCOCC2)c2cc(F)ccc21)C(=O)NCCO [Example 356] | 16.6 | 219 |
| CC(C)(C)[C@H](NC(=O)n1c(=O)n(CC2CCC2)c2ccccc21)C(N)=O [Example 201] | 4.94 | 45.3 |
| CCCCn1c(=O)n(C(=O)N[C@H](C(N)=O)C(C)(C)C)c2ccccc21 [Example 292] | 2.09 | 75.1 |
| CC(C)(C)[C@H](NC(=O)n1c(=O)n(CC2CCCCC2)c2cc(F)ccc21)C(N)=O [Example 169] | 0.28 | 1 |
| CC(C)(C)[C@H](NC(=O)n1c(=O)n(CC2CCOCC2)c2cc(F)ccc21)C(N)=O [Example 290] | 19.2 | 25.1 |
| O=C(NCc1ccoc1)n1c(=O)n(CC2CCOCC2)c2ccccc21 [Example 329] | 28 | 606 |
| CC(C)(C)[C@H](NC(=O)n1c(=O)n(CC2CCCCC2)c2ccccc21)C(N)=O [Example 200] | 0.52 | 96.9 |
| Cc1ccc2c(c1)n(C(=O)N[C@H](C(N)=O)C(C)(C)C)c(=O)n2CC1CCCCC1 [Example 167] | 2.66 | 44.9 |
| CC(C)(C)[C@H](NC(=O)n1c(=O)n(CC2CC=C(F)CC2)c2ccccc21)C(N)=O (single isomer, unassigned) [Example 305] | 0.18 | 1.74 |
| Cc1cc(CNC(=O)n2c(=O)n(CC3CCOCC3)c3ccccc32)no1 [Example 312] | 69.5 | 380 |
| CC(C)(C)[C@H](NC(=O)n1c(=O)n(CCCCC#N)c2ccccc21)C(N)=O [Example 223] | 102 | 1860 |
| CCCCCn1c(=O)n(C(=O)N[C@H](C(N)=O)C(C)(C)C)c2ccccc21 [Example 202] | 4.52 | 20.1 |
